The record followed here is article PMC9196629, “Synthesis, Characterization and Antitumor Mechanism Investigation of Heterometallic Ru(Ⅱ)-Re(Ⅰ) Complexes” (Frontiers in Chemistry, 2022).

“And” between values parts separate entries of the source, which are not always exact repeats. Identical values can stand only once.

For data set [1], the system named is HeLa cells. Description: Intracellular ROS by H2DCFDA staining. In kind it is cell-based, human. The note with it: 6 h, confocal microscopy. Here is the method:
ROS are natural by-product of normal oxygen metabolism and play an important role in cellular signaling transduction and homeostasis in vivo ([Casas et al., 2020]). It has been shown that the excessive production of ROS may cause oxidative stress and lead to cell death ([Jia et al., 2020]). Herein, cells were treated with RuRe-1 and RuRe-2 for 6 h and then stained with 2′,7′-dichlorodihydrouorescein diacetate (H2DCFDA). H2DCFDA is non-fluorescent and can be oxidized by intracellular ROS to highly fluorescent 2′,7′-dichlorofluorescein (DCF) ([Abdel Hadi et al., 2021]). The intensity of green fluorescence can respond to the accumulation of intracellular ROS.
FIGURE 7 RuRe-1 and RuRe-2 induced the elevation of intracellular ROS levels examined by confocal microscopy with H2DCFDA staining (λ ex = 488 nm, λ em = 530 ± 20 nm). The incubation time of the compounds was 6 h. Scale bar: 20 μm.
Measurement of intracellular ROS. After HeLa cells were adhered to the confocal dishes, the medium was replaced with medium containing the indicated concentrations of RuRe-1 and RuRe-2 for 6 h. Subsequently, the medium was aspirated and cells were washed three times with serum-free DMEM. Then, cells were co-incubated with fluorescent dye H2DCFDA (10 μM) at 37 °C for 10 mins and washed three times with PBS and visualized by a confocal microscope (λex = 488 nm, λem = 530 ± 20 nm).

Data set [2] can be described thus: Stability in PBS by UV-Vis spectroscopy. In kind it is physicochemical. The note with it: 10 μM, PBS, 0, 24 and 48 h. As for the experimental part:
The stabilities of RuRe-1 and RuRe-2 in PBS and human serum albumin (HSA) were tested through UV–Vis spectroscopy.
Supplementary Figure 12. UV-Vis absorption spectra of RuRe-1 (10 μM), RuRe-2 (10 μM), Ru-1 (10 μM), Ru-2 (10 μM) and Re-1 (10 μM) in PBS (A) and HSA (B) solution collected at 0, 24, and 48 h, respectively.

Data set [3] deals with HeLa cells. In words: Colony formation assay. In kind it is cell-based, human. The note with it: 24 h treatment then 7 days. Here is the method: The consequence of increased local cell migration is distal invasion, and the clonal growth of distal invasive cells will produce a second tumor ([Wang et al., 2017]). We further investigated the ability of RuRe-1 and RuRe-2 to inhibit the formation of cell colonies by cell colony formation assay.
Colony forming assay. HeLa cells were cultured in 6-well plates at a density of 500 cells per well. After cells had adhered, the medium was replaced with medium containing the indicated concentrations of RuRe-1 and RuRe-2 for 24 h. Subsequently, the medium was replaced with fresh medium and the cells were cultured for 7 days to form colonies. The colonies formed were fixed with 4% paraformaldehyde, and stained with crystal violet (0.005%). Finally, colonies were calculated and the images were taken using digital camera.

Data set [4] concerns HeLa cells. Description: Cell cycle analysis by flow cytometry with PI staining. In kind it is cell-based, human. The note with it: 24 h; for S cell cycle population: control 14.4 ± 0.9; for G2/M cell cycle population: control 21.4 ± 0.7; for G0/G1 cell cycle population: control 64.2 ± 1.3. The text has this:
Cell cycle arrest studies provide a good understanding of cell apoptosis induced by metal drugs ([Sadoughi et al., 2021]). To further clarify the mechanism of apoptosis induced by RuRe-1 and RuRe-2, we analyzed the cell cycle of HeLa cells treated with RuRe-1 and RuRe-2 by flow cytometry with PI staining. […] A corresponding decrease in cell content in G1 and G2 phases was observed.
Cell cycle analysis. After HeLa cells were adhered to the 6-well plates, the medium was replaced with medium containing different concentrations of RuRe-1 and RuRe-2 for 24 h. Cells were collected and fixed for 24 h with pre-cooled 70% ethanol, then washed twice with PBS and finally stained with PI staining solution in a warm bath at 37 °C for 30 mins. The samples were detected by flow cytometry.

The subject of data set [5] is HeLa cells. Description: Hoechst 33342 staining of nuclear morphology. In kind it is cell-based, human. The note with it: 24 h. As for the experimental part: First, changes in cell morphology of HeLa cells induced by RuRe-1 and RuRe-2 were examined with 2'-(4-ethoxyphenyl)-5-(4-methyl-1-piperazinyl)-2,5′-bi-1H-benzimidazole trihydrochloride (Hoechst 33342) staining. Hoechst 33342 is a blue fluorescent dye that can penetrate cell membranes and is commonly used to stain cell nuclei ([Tian et al., 2018]).
FIGURE 2 RuRe-1 and RuRe-2 induced HeLa cells apoptosis measured by confocal microscopy with Hoechst 33342 staining (λ ex = 405 nm, λ em = 460 ± 20 nm). The incubation time of the compounds was 24 h. Arrows indicate apoptotic morphological nuclei. Scale bar: 20 μm.
Hoechst 33342 staining assay. After HeLa cells were adhered to the confocal dishes, the medium was replaced with a medium containing the indicated concentrations of RuRe-1 and RuRe-2. After incubation for 24 h, the medium was aspirated and the cells were washed three times with PBS, then fixed with 4% paraformaldehyde. Subsequently, cells were labelled 10 mins with Hoechst 33342 (5 μg/mL) and observed immediately under confocal microscope (λex = 405 nm, λem = 460 ± 20 nm).

Regarding `F[P-](F)(F)(F)(F)F.F[P-](F)(F)(F)(F)F.F[P-](F)(F)(F)(F)F.[C-]#[O+].[C-]#[O+].[C-]#[O+].[Re+].[Ru+2].c1ccc(-c2ccccn2)nc1.c1ccc(-c2ccccn2)nc1.c1ccc(-c2ccnc3c2ccc2c(-c4ccccc4)ccnc23)cc1.c1cnc2c(c1)c1nc(-c3ccncc3)[nH]c1c1cccnc12` [RuRe-1, [Ru(bpy)2LRe(CO)3(DIP)](PF6)3], the “intracellular ROS levels (H2DCFDA)” value in the data set with HeLa cells [1] is “increase in intracellular ROS levels in a concentration-dependent manner”. Also, the “stability in PBS (UV-Vis spectral characteristics and absorption peaks)” value in data set [2] was “no significant change”. Also, the “cell populations (colonies) compared to the control group” value with HeLa cells [3] (9.3 μM) was 4.8%. Moreover, the “S cell cycle population” value is 12.5 ± 0.2% with HeLa cells [4] (6.2 μM); 27.4 ± 0.9% in the data set on HeLa cells [4] (9.3 μM); 33.8% and 33.8 ± 1.2% in the data set with HeLa cells [4] (12.4 μM). Also, the “G2/M cell cycle population” value with HeLa cells [4] (6.2 μM) came to 18.7 ± 1.3%; in the data set with HeLa cells [4] (9.3 μM), 16.1 ± 1.1%; in the data set with HeLa cells [4] (12.4 μM), 14.5 ± 1.1%. The “G0/G1 cell cycle population” value is on record as 68.8 ± 0.5% in the data set with HeLa cells [4] (6.2 μM), 56.5 ± 1.1% in the data set with HeLa cells [4] (9.3 μM) and 51.7 ± 0.9% with HeLa cells [4] (12.4 μM). Further, the “nuclear morphology (Hoechst 33342)” value in the data set on HeLa cells [5] is listed as “typical apoptotic characteristics”.
Turning to `F[P-](F)(F)(F)(F)F.F[P-](F)(F)(F)(F)F.F[P-](F)(F)(F)(F)F.[C-]#[O+].[C-]#[O+].[C-]#[O+].[Re+].[Ru+2].c1ccc(-c2ccnc3c2ccc2c(-c4ccccc4)ccnc23)cc1.c1cnc2c(c1)c1nc(-c3ccncc3)[nH]c1c1cccnc12.c1cnc2c(c1)ccc1cccnc12.c1cnc2c(c1)ccc1cccnc12` [RuRe-2, [Ru(phen)2LRe(CO)3(DIP)](PF6)3], the “intracellular ROS levels (H2DCFDA)” value in the data set with HeLa cells [1] is “increase in intracellular ROS levels in a concentration-dependent manner”. Besides, in data set [2], the “stability in PBS (UV-Vis spectral characteristics and absorption peaks)” value is “no significant change”. In the data set on HeLa cells [3] (7.5 μM), the “cell populations (colonies) compared to the control group” value was found to be 3.9%. Further, the “S cell cycle population” value in the data set on HeLa cells [4] (5.0 μM) was 16.8 ± 1.6%; in the data set on HeLa cells [4] (7.5 μM), 39.9 ± 1.5%; in the data set with HeLa cells [4] (10.0 μM), 40.0% and 40.0 ± 0.6%. For the same molecule, the “G2/M cell cycle population” value in the data set on HeLa cells [4] (5.0 μM) came to 17.9 ± 1.4%; in the data set on HeLa cells [4] (7.5 μM) it was 7.4 ± 0.5%; with HeLa cells [4] (10.0 μM) it was 7.6 ± 0.2%. The “G0/G1 cell cycle population” value in the data set with HeLa cells [4] (5.0 μM) was 65.3 ± 0.9%; with HeLa cells [4] (7.5 μM) it was 52.7 ± 1.3%; with HeLa cells [4] (10.0 μM) it was 52.4 ± 1.0%. Further, in the data set with HeLa cells [5], the “nuclear morphology (Hoechst 33342)” value is on record as “typical apoptotic characteristics”.
